Measured values as given in ChEMBL document CHEMBL1152560, “Substituted 2-arylbenzothiazoles as kinase inhibitors: hit-to-lead optimization” (Bioorg Med Chem, 2009).

Experiments:
[1] = target: Serine/threonine-protein kinase PAK 6 (Homo sapiens) (UniProt Q9NQU5); test: Residual activity of PAK6 at 1 uM by microplate scintillation counting
[2] = target: T1, Serine/threonine-protein kinase Sgk2 (Homo sapiens) (UniProt Q9HBY8); test: Residual activity of SGK2 at 10 uM by microplate scintillation counting
T1 sequence (whole entry): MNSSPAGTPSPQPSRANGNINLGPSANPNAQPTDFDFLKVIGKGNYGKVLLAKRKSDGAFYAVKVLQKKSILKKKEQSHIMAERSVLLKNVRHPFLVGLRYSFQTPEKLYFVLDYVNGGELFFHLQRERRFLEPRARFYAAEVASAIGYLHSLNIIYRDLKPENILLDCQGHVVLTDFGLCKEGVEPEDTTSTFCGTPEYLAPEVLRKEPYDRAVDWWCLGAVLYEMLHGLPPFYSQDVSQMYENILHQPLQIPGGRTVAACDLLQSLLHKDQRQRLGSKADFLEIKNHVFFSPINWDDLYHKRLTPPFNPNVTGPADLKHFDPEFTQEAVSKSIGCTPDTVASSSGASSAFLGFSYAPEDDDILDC

[3] = target: Receptor-interacting serine/threonine-protein kinase 2 (Homo sapiens) (UniProt O43353); test: Residual activity of RIPK2 at 0.1 uM by microplate scintillation counting
Sequence of Receptor-interacting serine/threonine-protein kinase 2 (Homo sapiens) (O43353 whole entry): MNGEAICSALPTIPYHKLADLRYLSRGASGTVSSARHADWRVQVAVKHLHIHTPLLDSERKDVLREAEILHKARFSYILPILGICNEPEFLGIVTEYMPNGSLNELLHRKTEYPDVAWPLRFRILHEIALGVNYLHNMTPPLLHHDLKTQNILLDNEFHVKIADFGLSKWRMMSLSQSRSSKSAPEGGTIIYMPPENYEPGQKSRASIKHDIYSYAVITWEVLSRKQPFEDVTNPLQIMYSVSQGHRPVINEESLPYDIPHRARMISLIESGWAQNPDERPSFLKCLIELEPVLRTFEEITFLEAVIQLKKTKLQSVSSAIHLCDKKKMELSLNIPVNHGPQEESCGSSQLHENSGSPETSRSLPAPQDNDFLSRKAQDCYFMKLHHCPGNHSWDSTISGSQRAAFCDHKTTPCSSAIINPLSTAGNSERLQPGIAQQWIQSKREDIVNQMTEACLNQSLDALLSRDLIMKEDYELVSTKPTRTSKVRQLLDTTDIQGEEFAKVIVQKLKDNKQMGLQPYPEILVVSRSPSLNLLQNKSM

[4] = target: Tyrosine-protein kinase BTK (Homo sapiens) (UniProt Q06187); test: Residual activity of BTK at 0.1 uM by microplate scintillation counting
Sequence of Tyrosine-protein kinase BTK (Homo sapiens) (Q06187 whole entry): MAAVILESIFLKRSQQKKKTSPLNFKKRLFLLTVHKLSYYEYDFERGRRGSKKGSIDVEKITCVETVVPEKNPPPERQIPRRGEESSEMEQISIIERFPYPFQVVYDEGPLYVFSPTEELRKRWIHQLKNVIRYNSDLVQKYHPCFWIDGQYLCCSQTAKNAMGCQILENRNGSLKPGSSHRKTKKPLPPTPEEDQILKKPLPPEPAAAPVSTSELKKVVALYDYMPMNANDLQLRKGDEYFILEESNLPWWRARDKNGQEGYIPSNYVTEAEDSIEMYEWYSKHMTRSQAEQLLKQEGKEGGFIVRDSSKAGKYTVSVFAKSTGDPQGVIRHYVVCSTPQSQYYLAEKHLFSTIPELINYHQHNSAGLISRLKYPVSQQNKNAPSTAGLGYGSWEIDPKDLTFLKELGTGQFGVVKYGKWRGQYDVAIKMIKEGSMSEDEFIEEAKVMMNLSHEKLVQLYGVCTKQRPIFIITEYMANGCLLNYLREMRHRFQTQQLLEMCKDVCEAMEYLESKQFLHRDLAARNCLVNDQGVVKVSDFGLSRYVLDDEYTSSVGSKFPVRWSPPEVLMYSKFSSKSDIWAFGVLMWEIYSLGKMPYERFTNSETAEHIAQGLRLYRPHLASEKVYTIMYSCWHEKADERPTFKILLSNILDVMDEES

[5] = target: Tyrosine-protein kinase Fes/Fps (Homo sapiens) (UniProt P07332); test: Residual activity of FES at 1 uM by microplate scintillation counting
Sequence of Tyrosine-protein kinase Fes/Fps (Homo sapiens) (P07332 whole entry): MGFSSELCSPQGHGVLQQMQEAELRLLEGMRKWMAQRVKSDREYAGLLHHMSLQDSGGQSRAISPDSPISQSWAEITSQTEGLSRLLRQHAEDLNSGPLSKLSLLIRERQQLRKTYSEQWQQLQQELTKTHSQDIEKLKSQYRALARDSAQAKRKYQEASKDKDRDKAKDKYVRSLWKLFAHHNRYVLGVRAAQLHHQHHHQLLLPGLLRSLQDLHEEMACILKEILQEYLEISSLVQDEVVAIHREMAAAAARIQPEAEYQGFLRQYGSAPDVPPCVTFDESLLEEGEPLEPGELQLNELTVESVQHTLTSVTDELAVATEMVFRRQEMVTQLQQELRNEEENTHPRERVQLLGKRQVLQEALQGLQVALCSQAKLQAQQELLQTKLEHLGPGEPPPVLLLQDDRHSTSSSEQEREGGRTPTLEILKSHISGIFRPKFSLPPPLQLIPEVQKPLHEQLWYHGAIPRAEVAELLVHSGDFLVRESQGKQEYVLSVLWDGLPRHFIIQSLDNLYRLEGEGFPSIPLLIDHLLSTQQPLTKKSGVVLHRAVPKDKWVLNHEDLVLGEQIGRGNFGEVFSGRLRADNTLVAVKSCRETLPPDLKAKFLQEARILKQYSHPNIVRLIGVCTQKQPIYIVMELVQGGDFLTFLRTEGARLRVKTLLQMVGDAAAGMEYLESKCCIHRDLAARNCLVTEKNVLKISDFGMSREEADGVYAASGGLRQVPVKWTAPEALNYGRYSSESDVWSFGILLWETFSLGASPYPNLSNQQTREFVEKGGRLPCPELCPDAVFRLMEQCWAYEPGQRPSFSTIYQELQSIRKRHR

[6] = target: T2, Serine/threonine-protein kinase 3 (Homo sapiens) (UniProt Q13188); test: Residual activity of MST2 at 1 uM by microplate scintillation counting
T2 sequence (whole entry): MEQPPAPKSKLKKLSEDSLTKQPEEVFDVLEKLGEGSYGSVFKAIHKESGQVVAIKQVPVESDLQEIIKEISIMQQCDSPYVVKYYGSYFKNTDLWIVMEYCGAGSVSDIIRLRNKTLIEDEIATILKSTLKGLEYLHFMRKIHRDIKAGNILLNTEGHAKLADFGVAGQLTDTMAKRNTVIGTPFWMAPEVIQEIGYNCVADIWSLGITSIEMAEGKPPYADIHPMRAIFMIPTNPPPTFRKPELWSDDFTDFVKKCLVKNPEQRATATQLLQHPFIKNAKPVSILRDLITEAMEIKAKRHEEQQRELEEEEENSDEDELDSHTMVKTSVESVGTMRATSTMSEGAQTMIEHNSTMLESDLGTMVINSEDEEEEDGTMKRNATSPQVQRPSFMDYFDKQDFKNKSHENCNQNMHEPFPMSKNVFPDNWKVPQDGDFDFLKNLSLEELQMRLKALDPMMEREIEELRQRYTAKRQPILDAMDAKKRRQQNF

[7] = target: Mitogen-activated protein kinase 1 (Homo sapiens) (UniProt P28482); test: Residual activity of ERK2 at 10 uM by microplate scintillation counting
Sequence of Mitogen-activated protein kinase 1 (Homo sapiens) (P28482 whole entry): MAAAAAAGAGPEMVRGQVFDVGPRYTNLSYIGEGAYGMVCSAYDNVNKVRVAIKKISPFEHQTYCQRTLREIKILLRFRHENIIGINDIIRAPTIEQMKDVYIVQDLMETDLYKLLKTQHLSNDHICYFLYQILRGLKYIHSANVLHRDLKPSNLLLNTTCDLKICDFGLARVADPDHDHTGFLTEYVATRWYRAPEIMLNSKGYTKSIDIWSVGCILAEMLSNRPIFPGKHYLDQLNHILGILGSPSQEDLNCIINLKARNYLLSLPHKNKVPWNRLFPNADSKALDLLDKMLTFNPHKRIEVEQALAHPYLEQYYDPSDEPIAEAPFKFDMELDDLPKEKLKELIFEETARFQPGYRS

[8] = target: T3, Cytoplasmic tyrosine-protein kinase BMX (Homo sapiens) (UniProt P51813); test: Residual activity of BMX at 10 uM by microplate scintillation counting
T3 sequence (whole entry): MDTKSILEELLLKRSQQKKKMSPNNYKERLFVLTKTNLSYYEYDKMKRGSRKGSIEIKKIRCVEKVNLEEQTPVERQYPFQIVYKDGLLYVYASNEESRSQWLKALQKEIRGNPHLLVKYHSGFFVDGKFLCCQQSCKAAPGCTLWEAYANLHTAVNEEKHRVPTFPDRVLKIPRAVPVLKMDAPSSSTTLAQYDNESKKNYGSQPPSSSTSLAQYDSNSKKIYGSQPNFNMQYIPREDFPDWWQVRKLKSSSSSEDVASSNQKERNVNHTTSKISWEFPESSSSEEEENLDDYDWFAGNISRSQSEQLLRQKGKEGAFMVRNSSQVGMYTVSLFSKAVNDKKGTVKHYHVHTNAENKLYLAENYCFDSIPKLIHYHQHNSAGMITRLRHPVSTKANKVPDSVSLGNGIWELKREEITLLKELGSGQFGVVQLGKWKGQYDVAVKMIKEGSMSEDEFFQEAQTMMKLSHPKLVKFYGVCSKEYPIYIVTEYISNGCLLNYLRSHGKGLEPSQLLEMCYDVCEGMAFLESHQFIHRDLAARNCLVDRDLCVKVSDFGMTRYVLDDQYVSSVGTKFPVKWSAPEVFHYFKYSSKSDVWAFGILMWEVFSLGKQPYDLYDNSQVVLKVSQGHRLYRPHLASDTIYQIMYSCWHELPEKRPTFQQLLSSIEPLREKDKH

[9] = target: Serine/threonine-protein kinase 24 (Homo sapiens) (UniProt Q9Y6E0); test: Residual activity of MST3 at 1 uM by microplate scintillation counting
Sequence of Serine/threonine-protein kinase 24 (Homo sapiens) (Q9Y6E0 whole entry, looked up): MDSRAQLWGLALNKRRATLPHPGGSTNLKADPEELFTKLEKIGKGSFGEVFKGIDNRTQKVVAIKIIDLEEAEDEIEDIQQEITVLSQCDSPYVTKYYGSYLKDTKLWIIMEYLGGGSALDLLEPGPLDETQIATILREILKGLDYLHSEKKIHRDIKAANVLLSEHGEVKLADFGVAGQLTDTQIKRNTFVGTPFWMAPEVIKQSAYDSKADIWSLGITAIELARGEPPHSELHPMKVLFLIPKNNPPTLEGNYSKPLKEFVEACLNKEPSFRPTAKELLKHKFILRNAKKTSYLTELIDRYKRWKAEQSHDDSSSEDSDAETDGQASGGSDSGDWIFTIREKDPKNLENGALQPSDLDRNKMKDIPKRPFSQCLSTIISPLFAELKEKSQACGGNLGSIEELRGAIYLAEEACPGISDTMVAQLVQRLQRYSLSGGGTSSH

[10] = target: Tyrosine-protein kinase Fyn (Homo sapiens) (UniProt P06241); test: Residual activity of FYN at 0.1 uM by microplate scintillation counting
Sequence of Tyrosine-protein kinase Fyn (Homo sapiens) (P06241 2-537 limits assumed): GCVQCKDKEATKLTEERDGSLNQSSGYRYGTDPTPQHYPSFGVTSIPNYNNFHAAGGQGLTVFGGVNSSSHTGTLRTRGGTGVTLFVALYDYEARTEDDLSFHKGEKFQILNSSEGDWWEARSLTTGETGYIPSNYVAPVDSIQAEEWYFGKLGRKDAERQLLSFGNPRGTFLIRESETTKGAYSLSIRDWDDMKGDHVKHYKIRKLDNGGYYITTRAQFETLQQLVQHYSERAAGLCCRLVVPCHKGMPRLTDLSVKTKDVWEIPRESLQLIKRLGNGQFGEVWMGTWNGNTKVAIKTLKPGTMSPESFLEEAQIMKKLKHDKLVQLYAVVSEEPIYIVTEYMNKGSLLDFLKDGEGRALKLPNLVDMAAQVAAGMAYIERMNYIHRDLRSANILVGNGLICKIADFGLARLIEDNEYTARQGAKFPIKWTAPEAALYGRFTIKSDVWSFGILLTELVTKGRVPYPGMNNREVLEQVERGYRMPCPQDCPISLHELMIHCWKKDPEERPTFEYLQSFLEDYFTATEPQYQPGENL

[11] = target: Ribosomal protein S6 kinase alpha-5 (Homo sapiens) (UniProt O75582); test: Residual activity of RPS6KA5 at 10 uM by microplate scintillation counting
Sequence of Ribosomal protein S6 kinase alpha-5 (Homo sapiens) (O75582 whole entry, looked up): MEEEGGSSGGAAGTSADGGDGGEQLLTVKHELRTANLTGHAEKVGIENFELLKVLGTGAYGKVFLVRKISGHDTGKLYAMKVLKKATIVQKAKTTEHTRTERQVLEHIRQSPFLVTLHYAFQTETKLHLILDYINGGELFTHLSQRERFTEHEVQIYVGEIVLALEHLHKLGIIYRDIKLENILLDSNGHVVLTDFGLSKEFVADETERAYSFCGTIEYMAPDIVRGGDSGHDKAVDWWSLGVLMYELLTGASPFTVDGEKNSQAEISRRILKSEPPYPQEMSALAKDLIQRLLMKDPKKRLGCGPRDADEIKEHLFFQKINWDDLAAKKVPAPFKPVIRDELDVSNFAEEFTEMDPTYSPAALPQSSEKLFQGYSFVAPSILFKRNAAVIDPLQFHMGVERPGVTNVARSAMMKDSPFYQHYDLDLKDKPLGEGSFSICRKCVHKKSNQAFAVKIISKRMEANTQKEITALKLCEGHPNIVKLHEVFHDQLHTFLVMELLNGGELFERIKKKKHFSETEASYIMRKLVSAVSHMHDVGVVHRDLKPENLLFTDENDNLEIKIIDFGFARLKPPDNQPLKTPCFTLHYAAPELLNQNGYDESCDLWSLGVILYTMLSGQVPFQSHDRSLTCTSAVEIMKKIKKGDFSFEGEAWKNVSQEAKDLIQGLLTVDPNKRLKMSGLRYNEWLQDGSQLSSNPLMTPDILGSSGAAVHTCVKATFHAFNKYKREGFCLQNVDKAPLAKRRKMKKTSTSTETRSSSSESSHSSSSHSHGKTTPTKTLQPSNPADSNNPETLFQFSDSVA

Sequence of Serine/threonine-protein kinase PAK 6 (Homo sapiens) (Q9NQU5 whole entry, looked up): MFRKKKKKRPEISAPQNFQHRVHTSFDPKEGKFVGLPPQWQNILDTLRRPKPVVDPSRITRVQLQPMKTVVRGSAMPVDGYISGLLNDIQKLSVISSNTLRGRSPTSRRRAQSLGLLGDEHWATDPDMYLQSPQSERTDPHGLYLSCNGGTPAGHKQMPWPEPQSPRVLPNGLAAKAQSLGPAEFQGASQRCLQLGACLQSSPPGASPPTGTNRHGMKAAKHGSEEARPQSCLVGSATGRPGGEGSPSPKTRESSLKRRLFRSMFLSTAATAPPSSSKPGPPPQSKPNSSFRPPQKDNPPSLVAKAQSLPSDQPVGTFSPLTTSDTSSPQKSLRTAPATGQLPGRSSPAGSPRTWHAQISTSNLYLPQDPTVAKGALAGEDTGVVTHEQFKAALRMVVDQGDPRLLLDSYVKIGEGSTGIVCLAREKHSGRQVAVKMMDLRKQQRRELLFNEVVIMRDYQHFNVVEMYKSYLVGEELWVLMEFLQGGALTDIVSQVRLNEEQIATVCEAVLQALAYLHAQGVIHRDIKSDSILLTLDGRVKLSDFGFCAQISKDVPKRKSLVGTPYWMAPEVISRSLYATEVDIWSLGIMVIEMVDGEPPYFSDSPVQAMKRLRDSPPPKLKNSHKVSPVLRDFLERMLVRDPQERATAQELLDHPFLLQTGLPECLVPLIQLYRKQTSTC

residual activity [1] [%] | residual activity [2] [%] | residual activity [3] [%] | residual activity [4] [%] | residual activity [5] [%] | residual activity [6] [%] | residual activity [7] [%] | residual activity [8] [%] | residual activity [9] [%] | residual activity [10] [%] | residual activity [11] [%] | Structure (SMILES)
74 | 101 | 78 | 100 | 105 | 67 | 161 | 156 | 118 | 101 | 146 | COc1cc2c(Oc3ccc(-c4nc5ccccc5s4)cc3)ncnc2cc1OCCCN1CCN(C)CC1
90 | 111 | 72 | 101 | 112 | 86 | 163 | 44 | 122 | 98 | 151 | COc1cc2c(Oc3ccc(-c4nc5ccccc5s4)cc3F)ncnc2cc1OCCCN1CCN(C)CC1
109 | 88 | 79 | 106 | 123 | 66 | 144 | 138 | 113 | 105 | 140 | COc1cc2c(Oc3ccc(-c4nc5ccccc5s4)cc3)ncnc2cc1OCCCN1CCCC1
